21 compounds from US10112907B2, “Substituted indazoles for treating tendon and/or ligament injuries” (NOVARTIS AG, priority 2016, dated 2018) can be followed below.

The subject of experiment [1] is Scleraxis (Scx) gene expression in rat tail tendon fascicles. The experiment is described as follows: Ex vivo assay, Scx mRNA in tendon fascicles (qPCR). It counts as cell-based, Sprague Dawley rat. A general note: Quantitative PCR measures a nucleic acid by following its amplification.
The subject of experiment [2] is collagen type I (Col1a2) gene expression in rat tail tendon fascicles. The experiment is described as follows: Ex vivo assay, Col1a2 mRNA in tendon fascicles (qPCR). It counts as cell-based, Sprague Dawley rat.
Experiment [3] relates to Tenomodulin (Tnmd) gene expression in rat tail tendon fascicles. The experiment is described as follows: Ex vivo assay, Tnmd mRNA in tendon fascicles (qPCR). It counts as cell-based, Sprague Dawley rat.
Experiment [4] concerns Scleraxis (Scx) gene transcriptional activation in TT-D6 Scx-luciferase (ScxL) cell line. Nature of the experiment: SCX-LUC in vitro assay (Scx-luciferase reporter). The following applies: Mus musculus. It counts as cell-based.
Setting [5] is: 96 h, Table 3, four days, read-out: Ex vivo Scx (EC50 μM).
The mark [6] stands for this setting: 96 h, Table 3, four days, read-out: Ex vivo Col1a2 (EC50 μM).
Setting [7] is: 96 h, Table 3, four days, read-out: Ex vivo Tnmd (EC50 μM).
Where [8] appears, read: 96 h, Table 3, four days, read-out: Scx-Luc (EC50 μM).

Structures are written as SMILES. Read-outs that look alike come from different tables or passages of the source.

As for `Cc1cc(S(=O)(=O)N2CC(F)(F)C[C@H]2CO)ccc1-c1ccc2[nH]nc(N)c2c1Cl` [Example 54, (S)-(1-((4-(3-amino-4-chloro-1H-indazol-5-yl)-3-methylphenyl)sulfonyl)-4,4-difluoropyrrolidin-2-yl)methanol], the EC50 (in general, the midpoint of the concentration-response curve) in experiment [1] (setting [5]) is 3.8 µM; in experiment [2] (setting [6]), 4.42 µM; in experiment [3] (setting [7]) it was 0.706 µM; in experiment [4] (setting [8]) it was 0.242 µM.
As to `Cc1cc(S(=O)(=O)N[C@@H]2CCCC[C@H]2O)ccc1-c1ccc2[nH]nc(N)c2c1C` [Example 16, 4-(3-amino-4-methyl-1H-indazol-5-yl)-N-((1R,2R)-2-hydroxycyclohexyl)-3-methylbenzenesulfonamide], the EC50 in experiment [1] (setting [5]) worked out at 1.75 µM; in experiment [2] (setting [6]), 0.557 µM; in experiment [3] (setting [7]), 0.447 µM; in experiment [4] (setting [8]) it was 0.638 µM.
Taken in the same sequence, the figures for `Cc1cc(S(=O)(=O)NC2CC(O)(C3CC3)C2)ccc1-c1ccc2[nH]nc(N)c2c1C` (stereo not drawn) [Example 50, 4-(3-amino-4-methyl-1H-indazol-5-yl)-N-(3-cyclopropyl-3-hydroxycyclobutyl)-3-methylbenzenesulfonamide] were 3.26 µM, 2.01 µM, 7.38 µM and 1.29 µM.
Take `Cc1cc(S(=O)(=O)N2CCC[C@H]2CO)ccc1-c1ccc2[nH]nc(N)c2c1C` [Example 19, (S)-(1-((4-(3-amino-4-methyl-1H-indazol-5-yl)-3-methylphenyl)sulfonyl)pyrrolidin-2-yl)methanol]: the EC50 amounted to 10 µM in experiment [1] (setting [5]), 10 µM in experiment [2] (setting [6]), 10 µM in experiment [3] (setting [7]) and 0.431 µM in experiment [4] (setting [8]).
In the case of `Cc1cc(S(=O)(=O)N2CC[C@@H](O)C2)ccc1-c1ccc2[nH]nc(N)c2c1C` [Example 4, (R)-1-((4-(3-amino-4-methyl-1H-indazol-5-yl)-3-methylphenyl)sulfonyl)pyrrolidin-3-ol], the EC50 was 1.64 µM in experiment [1] (setting [5]), 1.55 µM in experiment [2] (setting [6]), 0.513 µM in experiment [3] (setting [7]) and 0.511 µM in experiment [4] (setting [8]).
For the compound `O=C(Nc1nc2cccc(-c3ccc(OCc4ccc[n+]([O-])c4)cc3)n2n1)C1CC1` [reference compound], the EC50 in experiment [1] (Table 1, read-out: Ex vivo SCX (EC50 uM)) is 0.36 µM; in experiment [2] (Table 1, read-out: Ex vivo Col1a2 (EC50 uM)), 0.4 µM; in experiment [3] (Table 1, read-out: Ex vivo Tnmd (EC50 uM)), 5.99 µM; in experiment [4] (Table 1, read-out: Scx-Luc (EC50 uM)) it was 0.02 µM.
In the case of `Cc1cc(S(=O)(=O)N[C@H]2C[C@@H](O)C2)ccc1-c1ccc2[nH]nc(N)c2c1C` [Example 12, 4-(3-amino-4-methyl-1H-indazol-5-yl)-N-((1s,3s)-3-hydroxycyclobutyl)-3-methylbenzenesulfonamide], the EC50 in experiment [1] (setting [5]) was 1.73 µM; in experiment [2] (setting [6]), 10 µM; in experiment [3] (setting [7]), 10 µM; in experiment [4] (setting [8]), 2.21 µM.
In the case of `Cc1cc(S(=O)(=O)N(C)C2CC(F)(F)C2)ccc1-c1ccc2[nH]nc(N)c2c1C` [Example 63, 4-(3-amino-4-methyl-1H-indazol-5-yl)-N-(3,3-difluorocyclobutyl)-N,3-dimethylbenzenesulfonamide], the EC50 in experiment [1] (setting [5]) came to 1.38 µM; in experiment [2] (setting [6]), 1.79 µM; in experiment [3] (setting [7]), 5.41 µM; in experiment [4] (setting [8]) it was 0.222 µM.
Consider `Cc1c(-c2ccc(S(=O)(=O)N[C@H]3C[C@](O)(C(F)(F)F)C3)cc2Cl)ccc2[nH]nc(N)c12` [Example 55, 4-(3-amino-4-methyl-1H-indazol-5-yl)-3-chloro-N-((1s,3s)-3-hydroxy-3-(trifluoromethyl)cyclobutyl)benzenesulfonamide], for which the concentration for a half-maximal effect (EC50) in experiment [1] (setting [5]) is 3.14 µM; in experiment [2] (setting [6]), 3.5 µM; in experiment [3] (setting [7]) it was 5.5 µM; in experiment [4] (setting [8]), 0.228 µM.
On the same counts, the results for `Cc1cc(S(=O)(=O)N[C@H]2C[C@](O)(C(F)(F)F)C2)ccc1-c1ccc2[nH]nc(N)c2c1C` [Example 31, 4-(3-amino-4-methyl-1H-indazol-5-yl)-N-((1s,3s)-3-hydroxy-3-(trifluoromethyl)cyclobutyl)-3-methylbenzenesulfonamide] are 5.54 µM, 4.18 µM, 3.77 µM and 0.126 µM.
In the case of `Cc1cc(S(=O)(=O)N[C@@H]2COCC[C@H]2O)ccc1-c1ccc2[nH]nc(N)c2c1C` [Example 45, 4-(3-amino-4-methyl-1H-indazol-5-yl)-N-((3R,4R)-4-hydroxytetrahydro-2H-pyran-3-yl)-3-methylbenzenesulfonamide], the EC50 in experiment [1] (setting [5]) came out at 4.44 µM; in experiment [2] (setting [6]), 2.41 µM; in experiment [3] (setting [7]) it was 2.85 µM; in experiment [4] (setting [8]), 1.25 µM.
As for `Cc1c(-c2ccc(S(=O)(=O)N3CCC[C@H]3CO)cc2Cl)ccc2[nH]nc(N)c12` [Example 38, (S)-(1-((4-(3-amino-4-methyl-1H-indazol-5-yl)-3-chlorophenyl)sulfonyl)pyrrolidin-2-yl)methanol], the EC50 in experiment [4] (setting [8]) was 2.04 µM.
For the compound `Nc1n[nH]c2ccc(-c3ccc(S(=O)(=O)N4CC(F)(F)C[C@H]4CO)cc3F)c(Cl)c12` [Example 47, (S)-(1-((4-(3-amino-4-chloro-1H-indazol-5-yl)-3-fluorophenyl)sulfonyl)-4,4-difluoropyrrolidin-2-yl)methanol], the 50% effective concentration (EC50) in experiment [4] (setting [8]) came out at 0.986 µM.
For the compound `Cc1cc(S(=O)(=O)N[C@@H]2CCC[C@@H]2O)ccc1-c1ccc2[nH]nc(N)c2c1F` [Example 75, 4-(3-amino-4-fluoro-1H-indazol-5-yl)-N-((1R,2S)-2-hydroxycyclopentyl)-3-methylbenzenesulfonamide], the concentration for a half-maximal effect (EC50) in experiment [4] (setting [8]) was 0.359 µM.
Consider `Cc1c(-c2ccc(S(=O)(=O)N3CC[C@@H](O)C3)cc2Cl)ccc2[nH]nc(N)c12` [Example 2, (R)-1-((4-(3-amino-4-methyl-1H-indazol-5-yl)-3-chlorophenyl)sulfonyl)pyrrolidin-3-ol], for which the 50% effective concentration (EC50) in experiment [4] (setting [8]) was 0.908 µM.
Still for that read-out and setting: the figure for `Cc1cc(S(=O)(=O)N2CC(C)(O)C2)ccc1-c1ccc2[nH]nc(N)c2c1C` [Example 13, 1-((4-(3-amino-4-methyl-1H-indazol-5-yl)-3-methylphenyl)sulfonyl)-3-methylazetidin-3-ol] is 2.33 µM; for `Nc1n[nH]c2ccc(-c3ccc(S(=O)(=O)N4CC[C@@H](O)C4)cc3F)c(Cl)c12` [Example 6, (R)-1-((4-(3-amino-4-chloro-1H-indazol-5-yl)-3-fluorophenyl)sulfonyl)pyrrolidin-3-ol] it is 4.41 µM.
The same measure, in the same setting: in the case of `Cc1c(-c2ccc(S(=O)(=O)N3CC(C)(C)C3)cc2Cl)ccc2[nH]nc(N)c12` [Example 1, 5-(2-chloro-4-((3,3-dimethylazetidin-1-yl)sulfonyl)phenyl)-4-methyl-1H-indazol-3-amine] it was 0.773 µM; in that of `Nc1n[nH]c2ccc(-c3ccc(S(=O)(=O)N[C@@H]4CCC[C@@H]4O)cc3Cl)c(F)c12` [Example 76, 4-(3-amino-4-fluoro-1H-indazol-5-yl)-3-chloro-N-((1R,2S)-2-hydroxycyclopentyl)benzenesulfonamide], 0.171 µM; in that of `COc1c(-c2ccc(S(=O)(=O)N[C@H]3C[C@](O)(C(F)(F)F)C3)cc2Cl)ccc2[nH]nc(N)c12` [Example 65, 4-(3-amino-4-methoxy-1H-indazol-5-yl)-3-chloro-N-((1s,3s)-3-hydroxy-3-(trifluoromethyl)cyclobutyl)benzenesulfonamide], 1.22 µM.
The same measure, in the same setting: the figure for `Cc1cc(S(=O)(=O)N2CC(F)(F)C[C@H]2CO)ccc1-c1ccc2[nH]nc(N)c2c1F` [Example 44, (S)-(1-((4-(3-amino-4-fluoro-1H-indazol-5-yl)-3-methylphenyl)sulfonyl)-4,4-difluoropyrrolidin-2-yl)methanol] is 1.19 µM.
